Measurements published in patent US20190091175A1, “METHOD OF REDUCTION […] TREATING DRAVET SYNDROME” (ZOGENIX INTERNATIONAL LIMITED, priority 2017, published 2019).

How the values were obtained:
[1] = test system: subjects with Dravet syndrome; experiment: Study 1: Phase 3 double-blind placebo-controlled study of liquid fenfluramine formulation (ZX008) in Dravet syndrome; type: in vivo, human
Protocol: The first 119 subjects to be randomized in both identical studies combined were analyzed and reported as Study 1 (FIG. 1), covered by a Statistical Analysis Plan (SAP).
Primary and key secondary endpoints in the Study 1 SAP were pre-determined. All patients were treated twice per day over a period of 14 weeks using an oral syringe to administer the formulation. The treatment period included a two-week titration period and a 12-week maintenance period.
The initial results of Study 1 are outlined below. The randomized, double blind, placebo controlled, Phase 3 study enrolled 119 patients across sites in the United States, Canada, Europe and Australia. The median age of patients was 8 years, the mean age of patients was 9 years (range, 2-18 years) (FIG. 2).
Patients were titrated to their target dose over two weeks, and then remained at that fixed dose for 12 weeks. The mean baseline convulsive seizure frequency across the study groups was approximately 40 seizures per month. 110 (92%) patients completed the study (85% 0.8 mg/kg/day; 100% 0.2 mg/kg/day; 93% placebo).
The mean number of convulsive seizure free days, defined as a day for which diary data are available and no convulsive seizures have been reported, was determined for each treatment group during the Baseline and T+M Periods. Using a parametric analysis, comparisons for the ZX008 groups to placebo were estimated from an ANCOVA model with treatment group (3 levels) and age group (<6 years, ≥6 years) as factors, log baseline number of convulsive seizure free days as a covariate and log convulsive seizure free days (Titration+Maintenance, or Maintenance Period) as response. The mean (SD) number of convulsive seizure free days per 28 days during the Baseline Period was 12.6 (7.68), 15.7 (6.80), and 14.6 (7.59) for the placebo, 0.2 and 0.8 mg/kg/day groups, respectively. […] The mean (SD) number of convulsive seizure free days for the 0.2 mg/kg/day group was 17.9 (8.04) days, which was numerically greater than placebo, but was not statistically significant (p=0.514). […]

[2] = test system: self-induced photosensitive seizures; settings: four cases; cited from earlier work
[3] = test system: pattern sensitivity-induced seizures; settings: one child; cited from earlier work
[4] = test system: children with refractory epilepsy; settings: 0.5 to 1 mg/kg/day; cited from earlier work
[5] = test system: patients with Dravet syndrome; settings: long-term fenfluramine treatment; cited from earlier work

CCNC(C)Cc1cccc(C(F)(F)F)c1 (racemic) [Fenfluramine, (RS)-N-ethyl-1-[3-(trifluoromethyl)phenyl]propan-2-amine]
subjects with an adverse event leading to study termination / discontinuation ([1]; 0.8 mg/kg/day group): Five | tolerability ([1]; oral, 0.2 and 0.8 mg/kg/day, 14 weeks): generally well-tolerated | prospective cardiac safety monitoring (clinical, echocardiographic) ([1]; throughout the study): no clinical or echocardiographic evidence of cardiac valvulopathy or pulmonary hypertension | response of self-induced photosensitive seizures [2]: responded to treatment | effect on self-induced seizures resistant to anticonvulsive treatment [3]: successfully terminated these self-induced seizures | effect on number of seizures [4]: reduction in the number of seizures | heart valve defects by echocardiography [5]: No clinically relevant defects were identified
